{
  "source": "patent US20160262443A1",
  "about": "“USE OF A COMPOSITION CONTAINING 1,3-PROPANEDIOL AS E-LIQUID” (priority 2014, published 2016)",
  "key": {"[1]": {"experiment": "Kinematic viscosity measurement of e-liquid products (Example 6)", "assay_type": "physicochemical", "method": "Then, the kinematic viscosity of products A, B, C and D is measured."}, "[2]": {"assay_type": "physicochemical", "settings": "for DTA Transformation temperature (exothermic peak, reaction and/or decomposition) / DTA Vaporization temperature (endothermic peak): 25 to 350° C.", "method": "Thermogravimetric analysis is a thermal analysis method in which the changes of the physical and chemical properties of the materials are measured as a function of the temperature. TGA can yield information on the physical phenomena, such as vaporization or combustion.\nSimilarly, one can obtain information on chemical phenomena such as dehydration or decomposition. In differential thermal analysis (DTA), the material under study and an inert reference material are exposed to identical thermal cycles. During the analysis, the difference in temperature between the sample and the reference material is recorded. These differences in temperatures monitored versus time relative to the inert reference material provide information on the exothermic or endothermic thermal phenomena undergone by the sample. By integration of the heat flow curve, DTA analysis yields the so-called endothermic enthalpy values when there is energy absorption, or so-called exothermic enthalpy values when energy is released in the form of heat. The endothermic character is connected with a change in the state of the compound (for example, vaporization), while the exothermic character is induced by decomposition reactions or intra- and intermolecular chemical reactions.\nThe analysis conditions are the following: • test specimen: 50 mg • open crucible under air flow: 100 mL/min • heating ramp: 10° C./min • temperature range: 25 at 350° C. (temperature conditions representative of normal use and of misuse of an electronic cigarette). Between analyses, the apparatus is cleaned by heating at 600° C. under air flow, in order to eliminate any trace of unvaporized residue deposited on the crucible, the arms of the scale, or the walls of the furnace."}},
  "note": "Read-outs that look alike come from different tables or passages of the source.",
  "data": [
    {"molecule": "OCCCO", "note": "[1,3-propanediol]", "values": [
      {"measurement": "Kinematic viscosity at 20° C.", "setting": "[1]", "result": 52.6, "unit": "mPa · s"},
      {"measurement": "DTA Transformation temperature (exothermic peak, reaction and/or decomposition)", "setting": "[2]; air flow, 10° C./min", "result": "without any thermal decomposition"},
      {"measurement": "DTA Vaporization temperature (endothermic peak)", "setting": "[2]; air flow, 10° C./min", "result": 189, "unit": "°C"}
    ]},
    {"molecule": "OCC(O)CO", "note": "[Glycerol, glycerol]", "values": [
      {"measurement": "DTA residue unvaporized at 250° C.", "setting": "[2]; air flow, 10° C./min", "result": 27.3, "unit": "%"},
      {"measurement": "DTA Vaporization temperature (endothermic peak)", "setting": "[2]; air flow, 10° C./min", "result": 260, "unit": "°C"}
    ]},
    {"molecule": "CC(O)CO", "note": "(stereo not drawn) [Propylene glycol, propylene glycol]", "values": [
      {"measurement": "DTA Transformation temperature (exothermic peak, reaction and/or decomposition)", "setting": "[2]; air flow, 10° C./min", "result": "without any thermal decomposition"},
      {"measurement": "DTA Vaporization temperature (endothermic peak)", "setting": "[2]; air flow, 10° C./min", "result": 174, "unit": "°C"},
      {"measurement": "DTA Vaporization temperature (endothermic peak)", "setting": "[2]; air flow, 10° C./min, listed as propylene glycol", "result": 170, "unit": "°C"},
      {"measurement": "evaporation temperature lower than that of nicotine", "setting": "[2]; difference to nicotine", "result": 16, "unit": "°C"}
    ]}
  ]
}
